{"source": "patent US10689335B2", "about": "“Hydrogen sulfide precursors and conjugates thereof” (Georgia State University Research Foundation, Inc., priority 2015, dated 2020)", "key": {"PLE [1]": {"tested_on": "PLE", "assay": "Esterase-triggered release of H2S and parent drug from hybrid precursor (methylene blue method, HPLC)", "assay_type": "biochemical, pig", "conditions": "200 μM in phosphate buffer pH 7.4, PLE 20 unit/mL, 37° C.", "procedure": "To a 9.9 mL phosphate buffer (pH 7.4) solution was added 11.1 mg (200 unit) PLE, followed by the addition of 100 μL 20 mM HP-105 stock solution (final concentration: 200 μM). The resultant solution was sealed and stirred at 37° C. At every 30 min, 200 μL of reaction solution was taken into a 1.5 mL vial containing 200 μL zinc acetate (1%, w/v). Then the vial was centrifuged for 10 min. (14.5×1000 rp). The supernatant was removed and the precipitate was washed with PBS solution (100 μL×2). 600 μL of N,N-dimethyl-1,4-phenylenediaminesulfate (0.2% w/v in 20% H2SO4 solution) and 50 μL ferric chloride (10% w/v in 0.2% H2SO4 solution) was added to the vial. Then the vial was centrifuged for 5 min (14.5×1000 rp). The absorbance (at 740 nm) of the resulting solution was measured (after stirring for 10 min). H2S concentration was calculated based on a calibration curve of NaHS. (FIG. 7A)."}, "[2]": {"tested_on": "TNF-α secretion in RAW 264.7 cells", "assay": "Anti-inflammation study: TNF-α in LPS-stimulated RAW 264.7 cell culture supernatant (ELISA)", "assay_type": "cell-based", "conditions": "1 hour co-treatment with 1 unit/mL esterase and 1 μg/mL LPS", "procedure": "RAW 264.7 cells were seeded in the 48-well plate one day before the experiment. Lipopolysaccharide was added into the cell culture to initiate the inflammatory response in RAW 264.7 cells and to trigger the expression of cytokines. RAW 264.7 cells were co-treated with HPs (HP-101, HP-102, HP-103, HP-104) or iHPs, 1 unit/mL esterase and 1 μg/mL of LPS for 1 hour. Thereafter, the cell culture supernatant was collected. The concentrations of TNF-α in the cell culture supernatant was quantified by a commercial ELISA kit (ELISA Ready-SET-Go!®-eBioscience)."}, "PLE [3]": {"tested_on": "PLE", "assay": "H2S concentration measurement by electrode probe ISO-H2S-2 in phosphate buffer with esterase", "assay_type": "biochemical, pig", "conditions": "200 μM precursor in PBS at 37° C. with 1 unit/mL PLE", "procedure": "HPs (compounds HP-101, HP-102, HP-103, HP-104; final concentration=200 μM) were added to an incubation chamber (World Precision Instruments; WPI) containing phosphate buffer (10 mM; pH 7.4, 10 mL), and esterase (1 unit/mL) at 37° C. H2S formation was detected with the use of a 2-mm H2S-selective microelectrode (ISO-H2S-2; WPI) attached to an Apollo 1100 Free Radical Analyser (WPI) and shown as picoamps current generated. A standard curve (using Na2S.9H2O) was generated by following literature procedures, but using PBS containing esterase at 37° C. (FIG. 4).\nH2S release from these precursors was studied (FIG. 4). […] For 200 μM of the precursor compound in PBS at 37° C. with 1 unit/mL PLE, the peak H2S concentration for the fastest one, HP-101, was about 95 μM at 15 min; and for the slowest one, HP-104, it was about 13 μM at 43 min."}, "[4]": {"tested_on": "esterases produced by the cells", "assay": "H2S release from HP-101 in cell culture media (ISO-H2S-2 electrode)", "conditions": "200 μM, 37° C.", "procedure": "The in vitro release of H2S from HP-101 was studied under various conditions such as HP-101 (200 μM) in DMEM media (5 mL), cell+DMEM media without FBS, and cell+DMEM media with FBS.\nHP-101 (200 μM) was added to an incubation chamber (World Precision Instruments; WPI) containing cell culture media (10 mL) at 37° C. H2S formation was detected with the use of an ISO-H2S-2 probe attached to an Apollo 1100 Free Radical Analyser and shown as picoamps current generated. A standard curve (using Na2S.9H2O) was also generated under the same conditions."}, "porcine liver esterase": {"tested_on": "porcine liver esterase", "assay": "Esterase-induced H2S release detected with fluorescent probe WSP-5", "assay_type": "biochemical", "conditions": "200 μM, porcine liver esterase 4 u/mL in PBS at 37° C.", "procedure": "The ability of esterases to release hydrogen sulfide, as shown in Scheme 17, was examined using a well-known hydrogen sulfide fluorescent probe WSP-5 (3-oxo-3H-spiro[isobenzofuran-1,9′-xanthene]-3′,6′-diyl bis(2-(pyridin-2-yldisulfanyl)benzoate) to detect its production in the hydrogen sulfide precursor (HP) reaction mixture. A 200 μM solution of HP 10 was treated with porcine liver esterase (Aldrich, E2884), 4 u/mL) in PBS at 37° C., then 5 μL reaction mixture was taken into 995 μL acetonitrile and detected using WSP-5. The results are shown in FIG. 1 which indicate that HP 10 releases H2S in phosphate buffer saline with 4 units of esterase.\nBecause of the high volatility of H2S, when the escape rate is greater than formation rate, the concentration decreases. The peak concentration of H2S also appeared within about 25 min.\nHP-101 (final concentration: 200 μM) or other control compounds were added to PBS (10 mL) buffer containing esterase (1 unit/mL) at 37° C. After 15 minutes, aliquots of 100 μL samples were taken out and added into 100 μL PBS containing 50 μM WSP-5 and 100 μM CTAB in 96-well plate. After mixing and standing for 5 min at room temperature, the fluorescent intensities at 535 nm were recorded by a plate reader with excitation at 485 nm. (FIG. 1). […]"}, "esterase": {"tested_on": "esterase", "assay": "Esterase triggered lactone formation monitored by LC-MS/MS", "assay_type": "biochemical", "procedure": "The release of hydrogen sulfide and its release rate were detected using LC-MS. A 200 μM HP 10 reaction mixture was treated with esterase for 25 min which led to formation of more than 180 μM of the lactone product as shown in FIG. 2.\nHP-101 (final concentration: 200 μM) was added to PBS (10 mL) with 1 unit/mL esterase at 37° C. Reaction mixture (10 μL) was taken out every 3 minutes and added into a vial containing 990 μL methanol at −78° C. for 5 minutes. The mixture (14.5×1000 rp) was centrifuged, and the supernatant was used as the sample for LC-MS/MS analysis (Agilent 1100 LC, 6410 TripleQ MS/MS, Ion transition: 205.0/135.0, positive mode)."}}, "data": [{"smiles": "COc1ccc2cc([C@H](C)C(=O)Oc3cc(C)cc(C)c3C(C)(C)CC([O-])=S)ccc2c1.[Na+]", "note": "[HP-105, Sodium (S)-3-(2-((2-(6-methoxynaphthalen-2-yl)propanoyl)oxy)-4,6-dimethylphenyl)-3-methylbutanethioate]", "values": [{"measurement": "generation of naproxen and H2S by treatment with an esterase", "setting": "PLE [1]", "value": "could generate naproxen and H2S"}]}, {"smiles": "[Na+].[Na+].[S-2]", "note": "[Na2S]", "values": [{"measurement": "effect on TNF-α secretion", "setting": "[2]", "value": "pro-inflammatory effect"}]}, {"smiles": "C1COCCN1.COc1ccc(P(=S)(S)N2CCOCC2)cc1", "note": "(stereo not shown) [GYY 4137]", "values": [{"measurement": "effect on TNF-α secretion", "setting": "[2]", "value": "effectively inhibited TNF-α secretion"}]}, {"smiles": "CC(=O)Oc1cc(C)cc(C)c1C(C)(C)CC(=O)[S-].[Na+]", "note": "[HP-101, Sodium 3-(2-acetoxy-4,6-dimethylphenyl)-3-methylbutanethioate]", "values": [{"measurement": "peak H2S concentration", "setting": "PLE [3]", "value": "about 95 μM"}, {"measurement": "time of peak H2S concentration", "setting": "PLE [3]", "value": 15, "unit": "min"}, {"measurement": "H2S release in media collected after overnight of cell culture", "setting": "[4]", "value": "released at a moderate rate"}, {"measurement": "H2S release in DMEM alone", "setting": "[4]; DMEM media without cells", "value": "did not release H2S"}]}, {"smiles": "CC(=O)Oc1cc(C)cc(C)c1C(C)(C)CC(=O)S", "note": "[HP 10, 3-(2-acetoxy-4,6-dimethylphenyl)-3-methylbutanethioic S-acid]", "values": [{"measurement": "H2S release detected using WSP-5", "setting": "porcine liver esterase", "value": "releases H2S"}, {"measurement": "lactone product formed", "setting": "esterase; 200 μM reaction mixture treated with esterase for 25 min", "value": "more than 180 μM"}, {"measurement": "H2S released", "setting": "esterase; 200 μM, esterase, 25 min, inferred from lactone formed", "value": "more than 90%"}]}]}
